In patent US7205327B2, “Imidazole and benzimidazole caspase inhibitors and uses thereof” (Vertex Pharmaceuticals Incorporated, priority 2000, dated 2007):
pIC50: −log10 of the molar value. Structures can show the parent of a compound that is named as a salt.

Test system: FAS induced apoptosis
Assay: Anti-fas induced apoptosis assay
Format: cell-based
From the text: Anti-fas Induced Apoptosis Assay
Cellular apoptosis may be induced by the binding of Fas ligand (FasL) to its receptor, CD95 (Fas). Conditions for an assay to measure the effect of compounds on the inhibition of the caspase-8-mediated apoptotic pathway may be found in WO0142216.

| pIC50 | Compound |
| --- | --- |
| > 6.70 | C[C@H](NC(=O)c1ncc[nH]1)C(=O)NC(CC(=O)O)C(=O)CF (stereo partly drawn) [Compound 1, [3S/R,(2S)]-5-Fluoro-3-{2-[(1H-imidazole-2-carbonyl)-amino]-propionylamino}-4-oxo-pentanoic acid, trifluoroacetate salt] |
| > 6.70 | C[C@H](NC(=O)c1nc2ccccc2[nH]1)C(=O)NC(CC(=O)O)C(=O)CF (stereo partly drawn) [Compound 2, [3S/R, (2S)]-3-{2-[(1H-Benzoimidazole-2-carbonyl)-amino]-propionylamino}-5-fluoro-4-oxo-pentanoic acid, trifluoroacetate salt] |
| > 6.70 | CC[C@H](NC(=O)c1ncc[nH]1)C(=O)NC(CC(=O)O)C(=O)CF (stereo partly drawn) [Compound 3, [3S/R,(2S)]-5-Fluoro-3-{2-[(1H-imidazole-2-carbonyl)-amino]-butyrylamino}-4-oxo-pentanoic acid, trifluoroacetate salt] |
| > 6.70 | CC(C)[C@H](NC(=O)c1ncc[nH]1)C(=O)NC(CC(=O)O)C(=O)CF (stereo partly drawn) [Compound 4, [3S/R,(2S)]-5-Fluoro-3-{2-[(1H-imidazole-2-carbonyl)-amino]-3-methylbutyrylamino}-4-oxo-pentanoic acid] |
| > 6.70 | CC(C)[C@H](NC(=O)c1nc2ccccc2[nH]1)C(=O)NC(CC(=O)O)C(=O)CF (stereo partly drawn) [Compound 5, [3S/R, (2S)]-3-{2-[(1H-Benzoimidazole-2-carbonyl)-amino]-3-methylbutyrylamino}-5-fluoro-4-oxo-pentanoic acid] |
